Reference: patent US5373020A, “Substituted 5-(2-((2-aryl-2-hydroxyethyl)amino)propyl)-1,3-benzodioxoles” (American Cyanamid Company, priority 1993, dated 1994)
Counter-ions that a name gives are not always drawn.

What was measured:
[1] = tested on: ob/ob mice; test: Plasma glucose, compound in chow, obese mice; format: in vivo, mouse (C57 B1/6J ob/ob)
Protocol: (§1) The compounds of this invention were tested for hypoglycemic and anti-obesity activity according to the following procedure.
(§2) Obese mice (C57 B1/6J (ob/ob)), and/or diabetic mice (C57 B1/KsJ (db/db)) were obtained from Jackson Laboratories, Bar Harbor, Maine. Obese rats (fa/fa) were obtained from Charles River Laboratories, Wilmington, Mass. Obese mice were 8 weeks of age and diabetic mice were 9 weeks of age at the start of the test. Obese rats were 12-14 weeks of age at the start.
(§3) The test compounds were dissolved in methanol, mixed with powdered Purina rodent chow on a weight of compound to weight of chow basis and thoroughly dried.
(§4) Groups of 6 control mice or rats received vehicle (methanol) treated chow.
[…] Thus, a 40 g mouse, fed the test compound at a concentration of 0.02 percent of the diet, would receive a dose of 20 mg/kg/day if it ate 4 g of chow per day.
(§5) The mice or rats were weighed before the first treatment and once at the end of each indicated treatment period.
Blood samples were collected before the first treatment and once at the end of each indicated treatment period by retro-orbital puncture using heparinized capillary tubes.
Plasma was separated by centrifugation in a Beckman microfuge for 5 minutes. Plasma glucose concentrations were determined with the Beckman glucose analyzer which uses a glucose oxidase method.

[2] = tested on: ob/ob mice; test: Change in weight and food consumption, compound in chow, obese mice; format: in vivo, mouse (C57 B1/6J ob/ob)
Protocol: as §1, §2, §3, §4
Groups of 6 test mice were fed ad libitum for up to seven weeks and food consumption was measured daily by weighing the food bins before and after the addition of fresh chow. Thus, a 40 g mouse, fed the test compound at a concentration of 0.02 percent of the diet, would receive a dose of 20 mg/kg/day if it ate 4 g of chow per day.
as §5

[3] = target: T1, β3-receptors (Rattus norvegicus, UniProt P26255); test: Stimulation of adipocyte lipolysis (β3-effect); format: cell-based
T1 construct: Rat epididymal fat pads were excised and placed in 0.9% saline; from tissue; host or cells: collagenase-isolated adipocytes from rat epididymal fat pads
T1 sequence (P26255 whole entry): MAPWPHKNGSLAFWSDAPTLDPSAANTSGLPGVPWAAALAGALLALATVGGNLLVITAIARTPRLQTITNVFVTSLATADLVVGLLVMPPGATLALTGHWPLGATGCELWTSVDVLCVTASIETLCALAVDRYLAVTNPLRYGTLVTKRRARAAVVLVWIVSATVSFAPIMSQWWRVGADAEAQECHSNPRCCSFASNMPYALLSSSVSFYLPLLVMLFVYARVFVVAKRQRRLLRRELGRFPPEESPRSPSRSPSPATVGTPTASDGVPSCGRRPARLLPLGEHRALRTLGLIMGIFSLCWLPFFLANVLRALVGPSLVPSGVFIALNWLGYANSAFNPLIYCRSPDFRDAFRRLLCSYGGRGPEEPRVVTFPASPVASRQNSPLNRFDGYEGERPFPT
Protocol: (§6) β-Adrenergic receptors can be divided into β1, β2 and β3 -subtypes. Activation of β1 -receptors invokes increases in heart rate while activation of β2 -receptors stimulates glycogen breakdown in muscle and thereby prevents glycogen synthesis. Activation of β3 -receptors stimulates lipolysis (the breakdown of adipose tissue triglycerides to glycerol and free fatty acids), and thereby promotes the loss of fat mass.
The β3 -effect of the compounds was determined by their ability to stimulate adipocyte lipolysis. Rat epididymal fat pads were excised and placed in 0.9% saline. Four grams of tissue were transferred to a flask with 20 ml of aerated Krebs-Henseleit bicarbonate (KHB) buffer containing 3% fatty acid-free bovine serum albumin to which 75 mg of crude bacterial collagenase (Worthington) had been added. The tissue was incubated for about 45 minutes at 37° C. with gentle shaking. The cells were then washed three times with two volumes of KHB buffer, filtered through two layers of gauze, and brought to a final volume of 80 ml with KHB buffer. One ml aliquots of the cell suspension were added to plastic test tubes containing the appropriate additions of vehicle or compound. The cells were gassed for 1 minute with 95% O2 -5% CO2, capped, and incubated at 37° C. with continuous shaking for a total of 30 minutes. The reaction was stopped by adding 0.1 ml of 30% perchloric acid and 0.1 ml of chloroform. After centrifugation, 0.5 ml of supernatant was transferred to another test tube and neutralized with 0.04 ml of 3M K2 CO3 -0.5M triethanolamine. The amount-of glycerol generated from the hydrolysis of endogenous triglycerides was determined in a coupled-enzyme spectrophotometric assay. […] The test tubes were incubated for 40 minutes at 37° C. with constant shaking. […] This value was corrected for the amount of NADH generated in the absence of glycerol by incubating another aliquot of the neutralized extract with the same assay mixture but without glycerokinase.

[4] = target: T2, β1-receptors (Cavia porcellus, UniProt H0W3H1); test: Effect on heart rate of isolated right atria (β1-effect); parameters: species or system guinea pig
T2 construct: from tissue; host or cells: guinea pig right atria
T2 sequence (H0W3H1 1-470): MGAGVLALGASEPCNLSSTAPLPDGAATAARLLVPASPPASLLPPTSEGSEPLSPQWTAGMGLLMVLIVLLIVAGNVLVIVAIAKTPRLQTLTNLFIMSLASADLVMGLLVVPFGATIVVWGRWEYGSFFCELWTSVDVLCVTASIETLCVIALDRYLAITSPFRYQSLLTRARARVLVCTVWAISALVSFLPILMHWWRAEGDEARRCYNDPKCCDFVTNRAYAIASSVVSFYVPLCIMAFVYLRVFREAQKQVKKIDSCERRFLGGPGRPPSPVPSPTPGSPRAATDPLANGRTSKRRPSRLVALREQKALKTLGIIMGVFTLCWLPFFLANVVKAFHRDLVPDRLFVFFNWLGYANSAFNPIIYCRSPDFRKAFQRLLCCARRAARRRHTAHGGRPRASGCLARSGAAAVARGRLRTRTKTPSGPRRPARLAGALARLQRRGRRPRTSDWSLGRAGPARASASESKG
Protocol: as §6
Selectivity of a compound was determined using the following procedures. The effect on heart rate (β1 -effect) was determined using isolated right atria. […] The right atria were dissected and clamped at one end to a tissue holder and electrode assembly (MRA Corp.) and tied at the other end to a force-displacement transducer (Gould-Statham, Burco). The tissues were maintained at 32° C. in a 50 ml capacity glass chamber (MRA Corp.) preloaded with 0.5 g tension. Heart rate was monitored by a Grass polygragh. […] The increase in heart rate was calculated and considered to be the maximum response for that tissue. The tissues were then washed and allowed to equilibrate for 90 minutes. Cumulative concentration-response curves were then determined for each compound or vehicle. All responses were measured 5 minutes post-exposure.

[5] = target: T3, β2-receptors (Mus musculus, UniProt P18762); test: Inhibition of insulin-mediated incorporation of 14C-glucose into glycogen in isolated soleus muscle (β2-effect)
T3 construct: Soleus muscle from mice were dissected; from tissue; host or cells: mouse soleus muscle
T3 sequence (P18762 whole entry): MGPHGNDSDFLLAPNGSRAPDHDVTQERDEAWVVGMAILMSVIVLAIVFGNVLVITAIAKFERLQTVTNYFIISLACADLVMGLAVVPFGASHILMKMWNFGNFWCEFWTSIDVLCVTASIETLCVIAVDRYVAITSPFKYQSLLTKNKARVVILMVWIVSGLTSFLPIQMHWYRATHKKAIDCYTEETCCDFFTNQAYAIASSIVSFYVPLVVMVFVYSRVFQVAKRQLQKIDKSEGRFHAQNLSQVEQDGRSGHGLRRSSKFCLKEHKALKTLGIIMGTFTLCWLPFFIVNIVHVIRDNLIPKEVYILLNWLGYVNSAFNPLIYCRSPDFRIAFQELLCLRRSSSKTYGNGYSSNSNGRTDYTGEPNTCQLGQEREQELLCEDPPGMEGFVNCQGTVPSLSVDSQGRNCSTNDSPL
Protocol: as §6
The β2 -effect of the compounds was determined by their ability to inhibit the insulin-mediated incorporation of ^14 C-glucose into glycogen in isolated muscle. Soleus muscle from mice were dissected, tied at each end, and placed in a clamp to maintain tension. The clamped muscle was added to a vial that contained 2 ml of KHB with 1.5% bovine serum albumin, 0.3 mU/ml insulin, 5 mM (U^-14 C) glucose, and the appropriate additions of compound or vehicle. The vial was gassed with 95% O2 -5% CO2, capped, and the tissue incubated for one hour in a rotating water bath at 37° C. The muscle was then removed, rinsed in ice-cold saline, blotted and weighed. It was then added to 1 ml of 30% KOH containing 5 mg/ml of oyster glycogen, boiled for 10 minutes, and 0.4 ml of 2% Na2 SO4 and 3.2 ml of 100% ethanol added. After standing overnight at 4° C., the glycogen was pelleted by centrifugation, washed once with 66% ethanol, and repelleted. The pellet was dissolved in 1 ml of water and the amount of radioactivity present determined by liquid scintillation.

[6] = dose 0.0005 % wt of chow, week 1
[7] = dose 0.0005 % wt of chow, week 4
[8] = dose 0.002 % wt of chow, week 1
[9] = dose 0.002 % wt of chow, week 4
[10] = dose 0.005 % wt of chow, week 1
[11] = dose 0.005 % wt of chow, week 4

COC(=O)C1(C(=O)OC)Oc2ccc(C[C@@H](C)NC[C@H](O)c3cccc(Cl)c3)cc2O1 (stereo in doubt) [CL1, (R* R*)-(±)-5-(2-((2-(3-chlorophenyl)-2-hydroxyethyl)amino)propyl)-1,3-benzodioxole-2,2-dicarboxylic acid, dimethyl ester hydrobromide]
Plasma Glucose Levels ([1]; dose 0.0005 % wt of chow, week 0 (before treatment)): 270 mg/100 ml | Plasma Glucose Levels [1, 6]: 164 mg/100 ml | Plasma Glucose Levels [1, 7]: 179 mg/100 ml | Plasma Glucose Levels ([1]; dose 0.002 % wt of chow, week 0 (before treatment)): 276 mg/100 ml | Plasma Glucose Levels [1, 8]: 150 mg/100 ml | Plasma Glucose Levels [1, 9]: 156 mg/100 ml | Plasma Glucose Levels ([1]; dose 0.005 % wt of chow, week 0 (before treatment)): 237 mg/100 ml | Plasma Glucose Levels [1, 10]: 143 mg/100 ml | Plasma Glucose Levels [1, 11]: 157 mg/100 ml | Average Daily Food Consumption ([2]; dose 0.0005 % wt of chow): 5.6 g/animal | Change in weight [2, 6]: 0.5 grams | Change in weight ([2]; dose 0.0005 % wt of chow, week 2): 2.2 grams | Change in weight ([2]; dose 0.0005 % wt of chow, week 3): 3.2 grams | Change in weight [2, 7]: 5.2 grams | Average Daily Food Consumption ([2]; dose 0.002 % wt of chow): 5.6 g/animal | Change in weight [2, 8]: -0.3 grams | Change in weight ([2]; dose 0.002 % wt of chow, week 2): 1.1 grams | Change in weight ([2]; dose 0.002 % wt of chow, week 3): 1.6 grams | Change in weight [2, 9]: 3.2 grams | Average Daily Food Consumption ([2]; dose 0.005 % wt of chow): 5.8 g/animal | Change in weight [2, 10]: -1.1 grams | Change in weight ([2]; dose 0.005 % wt of chow, week 2): -0.7 grams | Change in weight ([2]; dose 0.005 % wt of chow, week 3): -0.2 grams | Change in weight [2, 11]: 1.6 grams | times more selective for lipolysis than prior art compound ([3]; CL2 vs BRL2, CL1 vs BRL1): 3 times | Relative Selectivity (CL/BRL), Atria ([3]; CL2 vs BRL2, CL1 vs BRL1, lipolysis over atria): 3.1 | Relative Selectivity (CL/BRL), Gly. Syn. ([3]; CL2 vs BRL2, CL1 vs BRL1, lipolysis over glycogen synthesis): 3.0 | Selectivity for Lipolysis over Atria ((EC50 - β1)/(EC50 - β3)) ([3]; ratio EC50 β1 / EC50 β3): 47 | Selectivity for Lipolysis over Gly. Syn. ((EC50 - β2)/(EC50 - β3)) ([3]; ratio EC50 β2 / EC50 β3): 27 | EC50 [4]: 14 nM | EC50 [5]: 800 nM
